In patent US6426229B1, “Chelating agent and detergent comprising the same” (Mitsubishi Rayon Co., Ltd., priority 1995, dated 2002):

Legend:
[1] = Storage of aqueous solution or slurry for 60 days: HPLC analysis of components and appearance; assay type: physicochemical; settings: keeping temperature 50° C.
Procedure: (§1) This aqueous solution was kept at 50° C. for 60 days, and, then, the components were analyzed by HPLC and, simultaneously, the appearance of the solution was observed.
as §1
This aqueous solution was kept at 50° C. for 60 days. Then, the components were analyzed by HPLC and, simultaneously, the appearance of the solution was observed.

[2] = as above; assay type: physicochemical

SMILES	Appearance after kept for 60 days [1]	Content of the compound of the formula [I] in aqueous solution after kept for 60 days [1] [wt. %]	also measured
O=C([O-])C[C@H](NCCN[C@@H](CC(=O)[O-])C(=O)[O-])C(=O)[O-].[Na+].[Na+].[Na+].[Na+] [Example 113, tetrasodium (S,S)-ethylenediamine-N,N′-disuccinate]	Light yellow transparent aqueous solution	35.6	
O=C([O-])CN(CCS(=O)(=O)[O-])CC(=O)[O-].[Na+].[Na+].[Na+] [compound 40, trisodium salt of taurine-N,N-diacetic acid]	Brown slurry	29.5	
O=C([O-])CC(NCCCNC(CC(=O)[O-])C(=O)[O-])C(=O)[O-].[Cu+2].[Na+].[Na+] (centres unmarked) [Example 126, copper disodium 1,3-propanediamine-N,N′-disuccinate]	Dark blue transparent aqueous solution	36.4	
O=C([O-])CN[C@@H](CC(=O)[O-])C(=O)[O-].[Na+].[Na+].[Na+] [compound 33, trisodium salt of (S)-aspartic acid-N-monoacetic acid]	Brown slurry	30.5	
O=C([O-])C[C@H](NCCN[C@@H](CC(=O)[O-])C(=O)[O-])C(=O)[O-].[Fe+3].[NH4+] [Example 125, iron ammonium (S,S)-ethylenediamine-N,N′-disuccinate]	Reddish brown aqueous solution	36.5	
O=C([O-])CN(CCS(=O)(=O)[O-])CC(=O)[O-].[Na+].[Na+].[Na+] [compound 37, trisodium salt of taurine-N,N-diacetic acid]	Brown aqueous solution	30.4	
CN(CC(=O)[O-])CC(=O)[O-].[Na+].[Na+] [compound 38, disodium N-methyliminodiacetate]	Brown aqueous solution	29.9	
O=C([O-])CN(CC(=O)[O-])c1ccccc1C(=O)[O-].[Na+].[Na+].[Na+] [compound 39, trisodium salt of anthranilic acid-N,N-diacetic acid]	Brown aqueous solution	31.8	
O=C([O-])CC(NCCCNC(CC(=O)[O-])C(=O)[O-])C(=O)[O-].[Na+].[Na+].[Na+].[Na+] (centres unmarked) [Example 114, tetrasodium 1,3-propanediamine-N,N′-disuccinate]	Light yellow transparent aqueous solution	36.4	
O=C([O-])CC(NCCCNC(CC(=O)[O-])C(=O)[O-])C(=O)[O-].[Na+].[Na+].[Na+].[Na+] (centres unmarked) [compound 45, tetrasodium 1,3-propanediamine-N,N′-disuccinate]	Light yellow transparent aqueous solution	33.3	
O=C([O-])CC(NCCNC(CC(=O)[O-])C(=O)[O-])C(=O)[O-].[Cu+2].[Na+].[Na+] (centres unmarked) [Example 124, copper disodium ethylenediamine-N,N′-disuccinate]	Dark blue transparent aqueous solution	36.3	
C[C@@H](C(=O)[O-])N(CC(=O)[O-])CC(=O)[O-].[Na+].[Na+].[Na+] [compound 32, trisodium salt of (S)-α-alanine-N,N-diacetic acid]	Brown aqueous solution	31.8	
O=C([O-])CN[C@@H](CC(=O)[O-])C(=O)[O-].[Na+].[Na+].[Na+] [compound 29, trisodium salt of (S)-aspartic acid-N-monoacetic acid]	Brown aqueous solution	31.1	
CN(CC(=O)[O-])CC(=O)[O-].[Na+].[Na+] [Example 101, disodium N-methyliminodiacetate]	Light yellow transparent aqueous solution	36.6	
O=C([O-])CCN[C@@H](CC(=O)[O-])C(=O)[O-].[Na+].[Na+].[Na+] [Example 87, trisodium salt of (S)-aspartic acid-N-monopropionic acid]	Light yellow transparent aqueous solution	37.8	
O=C([O-])C[C@H](NCCN[C@@H](CC(=O)[O-])C(=O)[O-])C(=O)[O-].[Na+].[Na+].[Na+].[Na+] [compound 44, tetrasodium (S,S)-ethylenediamine-N,N′-disuccinate]	Light yellow transparent aqueous solution	34.4	

SMILES	Appearance after kept for 60 days [1]	Content of the compound of the formula [I] in aqueous solution after kept for 60 days [1] [wt. %]	also measured
O=C([O-])CN(CCS(=O)(=O)[O-])CC(=O)[O-].[Na+].[Na+].[Na+] [Example 100, trisodium salt of taurine-N,N-diacetic acid]	Light yellow transparent aqueous solution	34.7	
O=C([O-])CC(NCCCNC(CC(=O)[O-])C(=O)[O-])C(=O)[O-].[Cu+2].[Na+].[Na+] (centres unmarked) [compound 50, copper disodium 1,3-propanediamine-N,N′-disuccinate]	Dark blue transparent aqueous solution	32.2	
O=C([O-])CN(CC(=O)[O-])c1ccccc1C(=O)[O-].[Fe+3] [Example 110, iron salt of anthranilic acid-N,N-diacetic acid]			Appearance after kept for 60 days ([2]; keeping temperature 40° C.): Reddish brown aqueous solution; Content of the compound of the formula [I] in aqueous solution after kept for 60 days ([2]; keeping temperature 40° C.): 49.3 wt. %
O=C([O-])CCN[C@@H](CC(=O)[O-])C(=O)[O-].[Na+].[Na+].[Na+] [Example 99, trisodium salt of (S)-aspartic acid-N-monopropionic acid]			Appearance after kept for 60 days ([2]; keeping temperature 70° C.): White slurry; Content of the compound of the formula [I] in aqueous solution after kept for 60 days ([2]; keeping temperature 70° C.): 79.4 wt. %
O=C([O-])C[C@@H](C(=O)[O-])N(CC(=O)[O-])CC(=O)[O-].[Na+].[Na+].[Na+].[Na+] [Example 94, tetrasodium salt of (S)-aspartic acid-N,N-diacetic acid]			Appearance after kept for 60 days ([2]; keeping temperature 65° C.): Light yellow slurry; Content of the compound of the formula [I] in aqueous solution after kept for 60 days ([2]; keeping temperature 65° C.): 64.5 wt. %
O=C([O-])C[C@H](NCCCN[C@@H](CC(=O)[O-])C(=O)[O-])C(=O)[O-].[Na+].[Na+].[Na+].[Na+] [compound 46, tetrasodium (S,S)-1,3-propanediamine-N,N′-disuccinate, reference compound]			Appearance after kept for 60 days ([2]; keeping temperature 75° C.): Colorless transparent aqueous solution; Content of the compound of the formula [I] in aqueous solution after kept for 60 days ([2]; keeping temperature 75° C.): 40.7 wt. %
O=C([O-])CC(NCCCNC(CC(=O)[O-])C(=O)[O-])C(=O)[O-].[Na+].[Na+].[Ni+2] [Example 127, nickel disodium (S,S)-1,3-propanediamine-N,N′-disuccinate]			Appearance after kept for 60 days ([2]; keeping temperature 75° C.): Blue transparent aqueous solution; Content of the compound of the formula [I] in aqueous solution after kept for 60 days ([2]; keeping temperature 75° C.): 44.0 wt. %
O=C([O-])CN(CC(=O)[O-])c1ccccc1C(=O)[O-].[Fe+3] [Example 111, iron salt of anthranilic acid-N,N-diacetic acid]			Appearance after kept for 60 days ([2]; keeping temperature 40° C.): Reddish brown aqueous solution; Content of the compound of the formula [I] in aqueous solution after kept for 60 days ([2]; keeping temperature 40° C.): 39.8 wt. %
CN(CC(=O)[O-])CC(=O)[O-].[Na+].[Na+] [Example 109, disodium N-methyliminodiacetate]			Appearance after kept for 60 days ([2]; keeping temperature 70° C.): White slurry; Content of the compound of the formula [I] in aqueous solution after kept for 60 days ([2]; keeping temperature 70° C.): 78.5 wt. %
CN(CC(=O)[O-])CC(=O)[O-].[Na+].[Na+] [compound 41, disodium N-methyliminodiacetate, reference compound]			Appearance after kept for 60 days ([2]; keeping temperature 75° C.): Light yellow transparent aqueous solution; Content of the compound of the formula [I] in aqueous solution after kept for 60 days ([2]; keeping temperature 75° C.): 29.6 wt. %
C[C@@H](C(=O)[O-])N(CC(=O)[O-])CC(=O)[O-].[Na+].[Na+].[Na+] [Example 96, trisodium salt of (S)-α-alanine-N,N-diacetic acid]			Appearance after kept for 60 days ([2]; keeping temperature 65° C.): Light yellow slurry; Content of the compound of the formula [I] in aqueous solution after kept for 60 days ([2]; keeping temperature 65° C.): 64.7 wt. %
O=C([O-])C[C@H](NCC(O)CN[C@@H](CC(=O)[O-])C(=O)[O-])C(=O)[O-].[Na+].[Na+].[Na+].[Na+] [Example 121, tetrasodium (S,S)-2-hydroxy-1,3-propanediamine-N,N′-disuccinate]			Appearance after kept for 60 days ([2]; keeping temperature 70° C.): White slurry; Content of the compound of the formula [I] in aqueous solution after kept for 60 days ([2]; keeping temperature 70° C.): 78.7 wt. %
O=C([O-])CC(NCCNC(CC(=O)[O-])C(=O)[O-])C(=O)[O-].[Na+].[Na+].[Na+].[Na+] (centres unmarked) [Example 117, tetrasodium ethylenediamine-N,N′-disuccinate]			Appearance after kept for 60 days ([2]; keeping temperature 75° C.): Colorless transparent aqueous solution; Content of the compound of the formula [I] in aqueous solution after kept for 60 days ([2]; keeping temperature 75° C.): 49.8 wt. %
O=C([O-])C[C@H](NCCN[C@@H](CC(=O)[O-])C(=O)[O-])C(=O)[O-].[Na+].[Na+].[Na+].[Na+] [Example 118, tetrasodium (S,S)-ethylenediamine-N,N′-disuccinate]			Appearance after kept for 60 days ([2]; keeping temperature 65° C.): Light yellow slurry; Content of the compound of the formula [I] in aqueous solution after kept for 60 days ([2]; keeping temperature 65° C.): 65.4 wt. %
O=C([O-])CN[C@@H](CC(=O)[O-])C(=O)[O-].[Na+].[Na+].[Na+] [Example 89, trisodium salt of (S)-aspartic acid-N-monoacetic acid]			Appearance after kept for 60 days ([2]; keeping temperature 75° C.): Colorless transparent aqueous solution; Content of the compound of the formula [I] in aqueous solution after kept for 60 days ([2]; keeping temperature 75° C.): 49.4 wt. %
